Data as given in ChEMBL document CHEMBL1158899, “Synthesis and structure-phytotoxicity relationships of acetylenic phenols and chromene metabolites, and their analogues, from the grapevine pathogen Eutypa lata” (J Nat Prod, 2003).

Columns and labels:
Vitis vinifera [1] = experiment: Phytotoxicity against grape leaf assessed as decrease in chlorophyll level after 64 hrs by leaf disk assay relative to control; assay type: organism-based; set-up: scale not given: the % may be the effect or the level left; conditions: in vivo
Vitis vinifera [2] = experiment: Phytotoxicity against grape leaf by leaf disk assay; assay type: organism-based; conditions: in vivo

CC1(C)C=Cc2cc(CO)ccc2O1 [EULATACHROMENE] showed an Activity (Vitis vinifera [1]) of 60%.

For C=C(C)C#Cc1cc(C=O)ccc1O [EUTYPINE], the Activity (Vitis vinifera [2]) was “Active”.

In the case of C=C(C)C#Cc1cc(O)ccc1O [SICCAYNE], the Activity (Vitis vinifera [2]) is reported as “Not Active”.
